Results reported in patent US10166237B2, “Compounds and methods for inducing chondrogenesis” (The Scripps Research Institute, priority 2011, dated 2019).

test system: human mesenchymal stem cells (hMSCs); assay: chondrogenic nodule formation by hMSCs (high throughput screen); assay type: cell-based; conditions: not given
Method: The primary screening assay was based upon the development of chondrogenic nodules. Chondrocytes can grow in monolayer in vitro, but to more closely mimic their native environment in the joint, the cells are routinely cultured in non-adherent conditions such as in pellet cultures or alginate bead suspensions.
In the actual screen of a library of 22,000 structurally diverse heterocycles, 10^4 primary hMSCs were plated in 384 well plates in serum free DMEM. The cells were treated with 5 μM of each compound and incubated for 4 days. […] To facilitate high throughput imaged-based detection, the chondrogenic nodules were stained with […]. The Nile Red stained nodules were quantified on an Acumen eX3 (high content imaging device) by excitation with a 488 laser for rapid detection of the nodules.
Primary hMSCs grown in a 96 well Greiner plates (50,000/well) were incubated for 4 days in the presence of the 5 uM of each DMSO or 100 nM of PRO1. On day 4, the cells were fixed with 4% formalin for 10 minutes, washed and stained with 1 μg/ml of Rhodamine B for 2 hours at room temperature.

SMILES	Activity (chondrogenic nodules formed in % of cells)
N#Cc1ccc(NC(=O)c2ccccc2C#N)cc1 [Compound A01]	** (chondrogenic nodules formed in at least 25% but less than 50% of cells)
N#Cc1ccc(NC(=O)c2ccccc2CC(=O)O)cc1 [Compound A06]	*** (chondrogenic nodules formed in at least 50% but less than 75% of cells)
CC(=O)c1ccccc1C(=O)Nc1ccc(C#N)cc1 [Compound A09]	** (chondrogenic nodules formed in at least 25% but less than 50% of cells)
COC(=O)Nc1ccccc1C(=O)Nc1ccc(C#N)cc1 [Compound A11]	** (chondrogenic nodules formed in at least 25% but less than 50% of cells)
N#Cc1ccc(NC(=O)c2ccccc2NC(N)=O)cc1 [Compound A12]	** (chondrogenic nodules formed in at least 25% but less than 50% of cells)
CS(=O)(=O)Nc1ccccc1C(=O)Nc1ccc(C#N)cc1 [Compound A13]	** (chondrogenic nodules formed in at least 25% but less than 50% of cells)
N#Cc1ccc(NC(=O)c2ccccc2S(=O)(=O)O)cc1 [Compound A22]	** (chondrogenic nodules formed in at least 25% but less than 50% of cells)
N#Cc1ccc(NC(=O)c2ccccc2S(N)(=O)=O)cc1 [Compound A23]	** (chondrogenic nodules formed in at least 25% but less than 50% of cells)
CNS(=O)(=O)c1ccccc1C(=O)Nc1ccc(C#N)cc1 [Compound A24]	** (chondrogenic nodules formed in at least 25% but less than 50% of cells)
N#Cc1ccc(NC(=O)c2ccc(C#N)cc2C(=O)O)cc1 [Compound B02]	** (chondrogenic nodules formed in at least 25% but less than 50% of cells)
N#Cc1ccc(NC(=O)c2cc(C#N)ccc2C(=O)O)cc1 [Compound B03, sodium 4-cyano-2-[(4-cyanophenyl)carbamoyl]benzoate]	*** (chondrogenic nodules formed in at least 50% but less than 75% of cells)
N#Cc1ccc(NC(=O)c2ccc(C(=O)O)cc2C(=O)O)cc1 [Compound B10]	** (chondrogenic nodules formed in at least 25% but less than 50% of cells)
N#Cc1ccc(NC(=O)c2c(C(=O)O)cccc2C(=O)O)cc1 [Compound B12]	** (chondrogenic nodules formed in at least 25% but less than 50% of cells)
N#Cc1ccc(NC(=O)c2ccncc2C(=O)O)cc1 [Compound B19]	*** (chondrogenic nodules formed in at least 50% but less than 75% of cells)
N#Cc1ccc(NC(=O)c2cccnc2C(=O)O)cc1 [Compound B20]	** (chondrogenic nodules formed in at least 25% but less than 50% of cells)
N#Cc1ccc(NC(=O)c2ccccc2-c2ccccc2C(=O)O)cc1 [Compound B32]	** (chondrogenic nodules formed in at least 25% but less than 50% of cells)
O=C(O)c1ccccc1C(=O)Nc1ccncc1 [Compound N01]	*** (chondrogenic nodules formed in at least 50% but less than 75% of cells)
O=C(O)c1ccccc1C(=O)Nc1ccccc1OC(F)F [Compound N04]	*** (chondrogenic nodules formed in at least 50% but less than 75% of cells)
O=C(O)c1ccccc1C(=O)Nc1cccc(OC(F)F)c1 [Compound N05]	** (chondrogenic nodules formed in at least 25% but less than 50% of cells)
CC(=O)c1cccc(NC(=O)c2ccccc2C(=O)O)c1 [Compound N08]	**** (chondrogenic nodules formed in at least 75% of cells)
CC(=O)c1ccc(NC(=O)c2ccccc2C(=O)O)cc1 [Compound N09]	** (chondrogenic nodules formed in at least 25% but less than 50% of cells)
NC(=O)c1ccccc1NC(=O)c1ccccc1C(=O)O [Compound N10]	** (chondrogenic nodules formed in at least 25% but less than 50% of cells)
NC(=O)c1cccc(NC(=O)c2ccccc2C(=O)O)c1 [Compound N11]	** (chondrogenic nodules formed in at least 25% but less than 50% of cells)
O=C(O)c1ccccc1NC(=O)c1ccccc1C(=O)O [Compound N13]	** (chondrogenic nodules formed in at least 25% but less than 50% of cells)
O=C(O)c1cccc(NC(=O)c2ccccc2C(=O)O)c1 [Compound N14]	** (chondrogenic nodules formed in at least 25% but less than 50% of cells)
NS(=O)(=O)c1cccc(NC(=O)c2ccccc2C(=O)O)c1 [Compound N17]	** (chondrogenic nodules formed in at least 25% but less than 50% of cells)

SMILES	Activity (chondrogenic nodules formed in % of cells)
N#Cc1cccc(NC(=O)c2ccccc2C(=O)O)c1 [Compound N19]	*** (chondrogenic nodules formed in at least 50% but less than 75% of cells)
O=C(O)c1ccccc1C(=O)Nc1ccccc1CO [Compound N20]	** (chondrogenic nodules formed in at least 25% but less than 50% of cells)
CNCc1cccc(NC(=O)c2ccccc2C(=O)O)c1 [Compound N24]	*** (chondrogenic nodules formed in at least 50% but less than 75% of cells)
O=C(O)c1ccccc1C(=O)Nc1ccc(CCO)cc1 [Compound N26]	*** (chondrogenic nodules formed in at least 50% but less than 75% of cells)
O=C(O)c1ccccc1C(=O)Nc1ccc(N2CCOCC2)cc1 [Compound N28]	** (chondrogenic nodules formed in at least 25% but less than 50% of cells)
N#CC1CCC(NC(=O)c2ccccc2C(=O)O)CC1 (centres unmarked) [Compound N30]	** (chondrogenic nodules formed in at least 25% but less than 50% of cells)
O=C(O)c1ccccc1C(=O)NC1CCC(C(=O)O)CC1 (centres unmarked) [Compound N31]	** (chondrogenic nodules formed in at least 25% but less than 50% of cells)
O=C(O)c1ccccc1C(=O)NCC1CCC(C(=O)O)CC1 (centres unmarked) [Compound N33]	** (chondrogenic nodules formed in at least 25% but less than 50% of cells)
O=C(O)c1ccccc1C(=O)Nc1ncc[nH]1 [Compound N34]	** (chondrogenic nodules formed in at least 25% but less than 50% of cells)
O=C(O)c1ccccc1C(=O)Nc1ncco1 [Compound N35]	** (chondrogenic nodules formed in at least 25% but less than 50% of cells)
O=C(O)c1ccccc1C(=O)Nc1nc(-c2ccccc2)co1 [Compound N38]	** (chondrogenic nodules formed in at least 25% but less than 50% of cells)
O=C(O)c1ccccc1C(=O)Nc1nc(-c2ccccc2)cs1 [Compound N39]	** (chondrogenic nodules formed in at least 25% but less than 50% of cells)
O=C(O)c1ccccc1C(=O)Nc1cncs1 [Compound N42]	*** (chondrogenic nodules formed in at least 50% but less than 75% of cells)
O=C(O)c1ccccc1C(=O)Nc1cnc(-c2ccccc2)s1 [Compound N45]	*** (chondrogenic nodules formed in at least 50% but less than 75% of cells)
O=C(O)c1ccccc1C(=O)Nc1ncccn1 [Compound N50]	** (chondrogenic nodules formed in at least 25% but less than 50% of cells)
O=C(O)c1ccccc1C(=O)Nc1cnccn1 [Compound N52]	** (chondrogenic nodules formed in at least 25% but less than 50% of cells)
N#Cc1cccc2[nH]c(-c3ccccc3C(=O)O)nc12 [Compound R01]	** (chondrogenic nodules formed in at least 25% but less than 50% of cells)
N#Cc1ccc2nc(-c3ccccc3C(=O)O)sc2c1 [Compound R06-1]	** (chondrogenic nodules formed in at least 25% but less than 50% of cells)
N#Cc1ccc(S(=O)(=O)Nc2ccccc2C(=O)O)cc1 [Compound R07]	** (chondrogenic nodules formed in at least 25% but less than 50% of cells)
N#Cc1ccc(NC(=O)Nc2ccccc2C(=O)O)cc1 [Compound R10]	** (chondrogenic nodules formed in at least 25% but less than 50% of cells)
O=C(O)c1ccccc1CNC(=O)c1ccccc1C(=O)O [MS01]	*** (chondrogenic nodules formed in at least 50% but less than 75% of cells)
O=C(O)c1cccc(CNC(=O)c2ccccc2C(=O)O)c1 [MS02]	** (chondrogenic nodules formed in at least 25% but less than 50% of cells)
N#Cc1ccccc1CNC(=O)c1ccccc1C(=O)O [MS04]	** (chondrogenic nodules formed in at least 25% but less than 50% of cells)
N#Cc1ccc(CNC(=O)c2ccccc2C(=O)O)cc1 [MS06]	** (chondrogenic nodules formed in at least 25% but less than 50% of cells)
N#Cc1ccc(C(=O)NCc2ccccc2C(=O)O)cc1 [MS11]	** (chondrogenic nodules formed in at least 25% but less than 50% of cells)

same assay, conditions: Homo sapiens, Mesenchymal stem cells; first value of the cell (before the slash); read-out: CHONDROGENIC μM EC50

EC50	SMILES
> 10 µM	N#Cc1ccccc1NC(=O)c1ccccc1C(=O)O [LK13b]
> 10 µM	O=C(O)c1ccccc1C(=O)Nc1nnc(-c2ccccc2)s1 [LK57, 2-((5-phenyl-1,3,4-thiadiazol-2-yl)carbamoyl)benzoic acid]
